Reference: the supplement of paper PMC11451515

System: P12-Ichikawa
Test: cell viability relative to DMSO control; higher = less cytotoxic
Conditions: 48 h
Method in brief: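 Library compounds in DMSO were pin-dosed in an 11-point threefold series (47 μM to 0.79 nM) onto leukemia cells in 1536-well plates (5 μl). Plates held 500 cells/well of NOMO1 or SEM or 1000 cells/well of P12-Ichikawa, each adapted for at least four passages in each medium. Luminescence was read with CellTiter-Glo One after 48 h at 37°C. Viability means the per-plate percentage relative to DMSO wells, using cell-free wells as background.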

[1] = HPLM + 10% dialyzed FBS, 0.000781 µM
[2] = HPLM + 10% dialyzed FBS, 0.00234 µM
[3] = HPLM + 10% dialyzed FBS, 0.00702 µM
[4] = HPLM + 10% dialyzed FBS, 0.0211 µM
[5] = HPLM + 10% dialyzed FBS, 0.0632 µM
[6] = HPLM + 10% dialyzed FBS, 0.19 µM
[7] = HPLM + 10% dialyzed FBS, 0.569 µM
[8] = HPLM + 10% dialyzed FBS, 1.71 µM
[9] = HPLM + 10% dialyzed FBS, 5.12 µM
[10] = HPLM + 10% dialyzed FBS, 15.4 µM
[11] = HPLM + 10% dialyzed FBS, 46.1 µM
[12] = RPMI 5 mM glucose + 10% FBS, 0.000781 µM
[13] = RPMI 5 mM glucose + 10% FBS, 0.00234 µM
[14] = RPMI 5 mM glucose + 10% FBS, 0.00702 µM
[15] = RPMI 5 mM glucose + 10% FBS, 0.0211 µM
[16] = RPMI 5 mM glucose + 10% FBS, 0.0632 µM
[17] = RPMI 5 mM glucose + 10% FBS, 0.19 µM
[18] = RPMI 5 mM glucose + 10% FBS, 0.569 µM
[19] = RPMI 5 mM glucose + 10% FBS, 1.71 µM
[20] = RPMI 5 mM glucose + 10% FBS, 5.12 µM
[21] = RPMI 5 mM glucose + 10% FBS, 15.4 µM
[22] = RPMI 5 mM glucose + 10% FBS, 46.1 µM
[23] = RPMI 5 mM glucose + 10% dialyzed FBS, 0.000781 µM
[24] = RPMI 5 mM glucose + 10% dialyzed FBS, 0.00234 µM
[25] = RPMI 5 mM glucose + 10% dialyzed FBS, 0.00702 µM
[26] = RPMI 5 mM glucose + 10% dialyzed FBS, 0.0211 µM
[27] = RPMI 5 mM glucose + 10% dialyzed FBS, 0.0632 µM
[28] = RPMI 5 mM glucose + 10% dialyzed FBS, 0.19 µM
[29] = RPMI 5 mM glucose + 10% dialyzed FBS, 0.569 µM
[30] = RPMI 5 mM glucose + 10% dialyzed FBS, 1.71 µM
[31] = RPMI 5 mM glucose + 10% dialyzed FBS, 5.12 µM
[32] = RPMI 5 mM glucose + 10% dialyzed FBS, 15.4 µM
[33] = RPMI 5 mM glucose + 10% dialyzed FBS, 46.1 µM

SMILES	cell viability [1]	cell viability [2]	cell viability [3]	cell viability [4]	cell viability [5]	cell viability [6]	cell viability [7]	cell viability [8]	cell viability [9]	cell viability [10]	cell viability [11]	cell viability [12]	cell viability [13]	cell viability [14]	cell viability [15]	cell viability [16]	cell viability [17]	cell viability [18]	cell viability [19]	cell viability [20]	cell viability [21]	cell viability [22]	cell viability [23]	cell viability [24]	cell viability [25]	cell viability [26]	cell viability [27]	cell viability [28]	cell viability [29]	cell viability [30]	cell viability [31]	cell viability [32]	cell viability [33]
Cc1c(NC(=O)OC[C@@H]2COCCN2)cn2ncnc(Nc3ccc4c(cnn4Cc4cccc(F)c4)c3)c12	80%	83.9%	91.5%	90%	94.8%	96.5%	99.8%	94.3%	86.8%	87.8%	50.6%	83%	84.4%	90.8%	87.9%	92.9%	85.8%	86%	92.2%	76.6%	81.3%	48.3%	83.4%	84.4%	88.9%	97.3%	100%	88.1%	89.2%	92.9%	91.3%	82.8%	40.4%
COc1ccc(C2CNC(=O)C2)cc1OC1CCCC1 (stereo not given)	88.6%	100%	102%	99%	109%	105%	107%	108%	105%	99%	102%	89%	106%	91.7%	99%	101%	96.7%	105%	103%	98.4%	102%	93%	84.8%	97.6%	89.7%	103%	95.6%	97.2%	92.4%	106%	106%	109%	99%
C[S+](=O)([O-])N1CCc2c(-c3cnc(N)nc3)nc(N3CCOCC3)nc21	110%	115%	110%	120%	111%	119%	115%	93.6%	104%	107%	98.5%	105%	97.8%	114%	106%	102%	108%	103%	73%	84.8%	79.6%	71.8%	98.2%	116%	110%	119%	112%	115%	107%	85.6%	103%	85.4%	78.5%
COc1ncc(-c2ccc3nccc(-c4ccnnc4)c3c2)cc1N[S+](=O)([O-])c1ccc(F)cc1F	118%	115%	115%	106%	101%	95.6%	95.3%	74.8%	35.8%	17%	11.3%	139%	111%	91.1%	91.4%	83.3%	77%	69.9%	55.9%	40%	17.5%	8.78%	131%	113%	101%	97.3%	89%	90.3%	80.5%	61.3%	47.5%	13.6%	9.07%
COC1=CC=C(C=C1)C/2=C/OC3=C(C(=CC(=C3)O)O)C2=O	113%	120%	118%	77.2%	124%	120%	119%	123%	117%	105%	74.5%	108%	108%	113%	65.2%	120%	120%	133%	121%	123%	127%	123%	118%	118%	119%	82%	131%	133%	129%	137%	133%	134%	93.7%
CCC(C)(Oc1ccc(C2(c3ccc(OC(C)(CC)C(=O)O)cc3)CCCCC2)cc1)C(=O)O (stereo not given)	109%	106%	103%	110%	99.2%	103%	103%	106%	107%	94%	98.4%	90.9%	95.6%	97%	93.2%	97.8%	97.2%	97.6%	101%	100%	92.1%	94.1%	87.5%	95.5%	89%	86.6%	96.8%	92%	82.1%	91%	89.1%	86.7%	85.3%
Cc1ccc([S+](=O)([O-])N[C@@H](Cc2ccccc2)C(=O)CCl)cc1	95%	106%	101%	101%	105%	107%	105%	106%	104%	94.4%	46.4%	90.8%	92.4%	95.7%	104%	113%	107%	88.7%	105%	109%	96.2%	36%	93.9%	92.6%	97.2%	102%	95.1%	91.3%	93.2%	94.7%	106%	105%	36.9%
CC(C)C[C@H](NC(=O)[C@H](CCc1ccccc1)NC(=O)CN1CCOCC1)C(=O)N[C@@H](Cc1ccccc1)C(=O)N[C@@H](CC(C)C)C(=O)[C@@]1(C)CO1	86.2%	96.7%	95.1%	86.1%	5.6%	5.9%	5.35%	4.68%	1.59%	-0.411%	-0.285%	83.1%	96.3%	92.7%	46.1%	4.86%	4.74%	4.53%	4.03%	2.11%	-0.0452%	-0.307%	78.8%	94.4%	91.2%	54.1%	5.27%	4.96%	4.93%	3.8%	1.93%	-0.204%	-0.46%
Cc1cc(C(C)(C)C)c(O)c(C)c1CC1=NCCN1	96.4%	98.3%	105%	98.3%	100%	104%	110%	96.6%	97.5%	71.1%	69.5%	92.6%	98.5%	98.5%	106%	99.2%	96.6%	99.1%	93.8%	103%	63.7%	60.5%	89.8%	89%	94.4%	95.5%	94.5%	104%	97.9%	105%	98.7%	53.8%	48.9%
CNc1nccc(-c2cccnc2Oc2cc(C(=O)Nc3cccc(C(F)(F)F)c3)ccc2C)n1	105%	111%	111%	113%	106%	122%	118%	123%	117%	91%	105%	112%	113%	112%	119%	119%	121%	115%	127%	119%	82.8%	103%	105%	101%	104%	114%	112%	110%	112%	120%	111%	90.7%	103%
C[C@]12CC[C@@H]3c4ccc(O)cc4C[C@@H](CCCCCCCCC[S+]([O-])CCCC(F)(F)C(F)(F)F)[C@H]3[C@@H]1CC[C@@H]2O (stereo not given in full)	112%	119%	115%	116%	112%	117%	112%	112%	116%	104%	104%																						
Nc1ncnc2c1c(-c1cnc3[nH]ccc3c1)nn2C1CCCC1	117%	121%	112%	111%	103%	106%	95.7%	81.3%	71.2%	52.2%	28.7%	122%	118%	122%	117%	106%	96.5%	90.1%	63.5%	53.7%	40.3%	26.2%											
CSCC[C@@H](NC(=O)[C@@H](Cc1ccccc1)NC(=O)CNC(=O)CNC(=O)[C@@H](N)Cc1ccc(O)cc1)C(=O)O	84.4%	96.7%	105%	11%	113%	102%	112%	104%	105%	120%	115%	82.2%	91.9%	101%	12.6%	107%	105%	104%	111%	99.8%	101%	102%	85.1%	88.1%	94.1%	24.3%	101%	98.7%	104%	101%	102%	97.9%	109%
CN1CCN(c2ccc([N+](=O)[O-])c3no[n+]([O-])c23)CC1	84.1%	85.5%	87.8%	93.8%	99%	91.5%	94.2%	90.6%	95.7%	95.2%	82.9%	86.1%	92.4%	93.1%	89%	94.7%	97.7%	93.2%	88.1%	95.4%	86.6%	91.3%	91.9%	91.9%	91.2%	92.1%	98.8%	91.8%	93.6%	89%	90.2%	91.1%	77.8%
C\C1=C(\C=C(C#N)/C(=O)N1)C2=C[N]3C=CN=C3C=C2	88.1%	82.3%	87.3%	89.8%	87.1%	84.6%	89.9%	88.5%	85.1%	91.5%	92.5%	88.8%	80.1%	82.9%	88%	79.3%	79.2%	80%	81.7%	86.6%	80.5%	84.7%	81.7%	72.9%	78.3%	78.7%	81.5%	78.8%	80.7%	78.3%	80.4%	74.9%	77.9%
CCC(C)(C)c1ccc(CC(C)CN2C[C@@H](C)O[C@@H](C)C2)cc1 (stereo not given in full)	81.2%	81.5%	82.8%	91.5%	97.3%	84.6%	91.9%	94.9%	89%	87.8%	91.6%	88.9%	81.4%	88.1%	87.8%	89.1%	82.3%	93.9%	85.6%	90.7%	86.2%	88%	72%	76.7%	78.3%	79.6%	81.8%	80.6%	84%	81.8%	85.5%	76.3%	75.8%
